Data set [1] is described as follows: Dynamic surface tension by the bubble pressure method (wetting agent effect). The class given is physicochemical. The following applies: for Dynamic surface tension: 22° C. Here is the method:
The dynamic surface tension was determined by the bubble pressure method (BP2100 tensiometer, Krúss) on a timescale relevant for spray application. The dynamic surface tension was measured for solutions of TBPEM-6 and TBPEM-8 in mains water at room temperature (22° C.) and at the typical spray mixture concentrations of 0.3, 1, and 3 g/l.

A further data set relates to apple cuticles. Kind of data set: Percentage penetration of benzyladenine through apple cuticles with and without TBPEM-6. It is filed as in vitro ADME. The following applies: 0.2 g/l benzyladenine in acetone/mains water, no additive. The method, then: The method described in the literature (Baur et al., 1997, Pesticide Science 51, 131-152) can be used for determining these properties.
The penetration of the growth promoter benzyladenine (benzylamonopurin) through leaf cuticles was measured at an active ingredient concentration of 0.2 g/l benzyladenine in acetone/mains water, with and without TBPEM-6, at different practically relevant concentrations, 5 hours and 24 hours after application.

Regarding “2,4,6-tributylphenoxy-ethoxy(6) methyl ether [TBPEM-6]”, the Dynamic surface tension in data set [1] (0.3 g/L in mains water, 20 ms) was 70.3 mN/m; in data set [1] (0.3 g/L in mains water, 100 ms), 65.0 mN/m; in data set [1] (0.3 g/L in mains water, 200 ms), 62.8 mN/m; in data set [1] (1 g/L in mains water, 20 ms), 62.9 mN/m; in data set [1] (1 g/L in mains water, 100 ms), 54.1 mN/m; in data set [1] (1 g/L in mains water, 200 ms) it was 52.5 mN/m. Further, the Dynamic surface tension in data set [1] (3 g/L in mains water, 20 ms) was 55.5 mN/m; in data set [1] (3 g/L in mains water, 100 ms), 42.9 mN/m; in data set [1] (3 g/L in mains water, 200 ms), 41.8 mN/m. Moreover, in data set [1] (spray application timescale), the “Suitability as wetting agent from dynamic surface tension” value is given as “excellent suitability as a rapid wetting agent”.

`c1ccc(CNc2ncnc3nc[nH]c23)cc1` [Benzyladenine, benzyladenine]: the “Percentage penetration of benzyladenine” value with apple cuticles (5 h) stood at 2.0%; in the data set on apple cuticles (24 h), 3.7%.

Regarding “tributylphenol ethoxylate(6) [Sapogenat T 060]”, the Dynamic surface tension in data set [1] (0.3 g/L in mains water, 20 ms) is 69.9 mN/m; in data set [1] (0.3 g/L in mains water, 100 ms) it was 64.6 mN/m; in data set [1] (0.3 g/L in mains water, 200 ms) it was 61.4 mN/m; in data set [1] (1 g/L in mains water, 20 ms) it was 67.3 mN/m; in data set [1] (1 g/L in mains water, 100 ms), 58.6 mN/m; in data set [1] (1 g/L in mains water, 200 ms), 53.2 mN/m. Also, the Dynamic surface tension in data set [1] (3 g/L in mains water, 20 ms) was determined as 63.4 mN/m; in data set [1] (3 g/L in mains water, 100 ms), 51.8 mN/m; in data set [1] (3 g/L in mains water, 200 ms) it was 46 mN/m.

Values taken from patent publication US20160244390A1, “Etherified Tri-Butylphenol Alkoxylates, Process For Their Preparation And Their Use In Crop Protection Agents” (CLARIANT INTERNATIONAL LTD, priority 2013, published 2016).
